Measurements reported in article PMC9426524 (mBio, 2022).

How the values were obtained:
[1] = tested on: JCVISYN3A_0400 (DJ-1 homolog); assay type: biochemical, Mycoplasma mycoides subsp. capri
[2] = tested on: CoADR (JCVISYN3A_0887); assay type: biochemical, Mycoplasma mycoides subsp. capri; details: pH 7.5
[3] = biological target: Bacillus subtilis NadD (Bacillus subtilis, UniProt P54455); assay type: biochemical
[4] = biological target: T1, human DJ-1 (Homo sapiens, UniProt Q99497); test: deglycase assay; assay type: biochemical; details: cited from earlier work
T1 construct: gene PARK7; recombinant; details in supplement
T1 sequence (Q99497 1-189 limits assumed): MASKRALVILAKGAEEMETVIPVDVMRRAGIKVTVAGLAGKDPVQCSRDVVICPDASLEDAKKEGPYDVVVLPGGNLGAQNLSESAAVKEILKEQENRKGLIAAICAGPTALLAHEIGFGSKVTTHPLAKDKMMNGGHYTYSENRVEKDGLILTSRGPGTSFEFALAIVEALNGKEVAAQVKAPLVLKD

Bacillus subtilis NadD, sequence (P54455 whole entry): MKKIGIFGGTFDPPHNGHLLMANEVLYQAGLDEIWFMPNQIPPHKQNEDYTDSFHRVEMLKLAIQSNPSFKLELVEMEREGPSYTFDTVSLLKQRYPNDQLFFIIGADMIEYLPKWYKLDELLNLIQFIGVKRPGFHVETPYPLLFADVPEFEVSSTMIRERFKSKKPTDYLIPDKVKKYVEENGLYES

With `CC(=O)C=O` [methylglyoxal] the Km [1] was 1230 ± 300 µM.
`CC(C)(COP(=O)(O)OP(=O)(O)OC[C@H]1O[C@@H](n2cnc3c(N)ncnc32)[C@H](O)[C@@H]1OP(=O)(O)O)[C@@H](O)C(=O)NCCC(=O)NCCSSCCNC(=O)CCNC(=O)[C@H](O)C(C)(C)COP(=O)(O)OP(=O)(O)OC[C@H]1O[C@@H](n2cnc3c(N)ncnc32)[C@H](O)[C@@H]1OP(=O)(O)O` [CoAD] showed a Km [2] of 170 µM.
For `Nc1ncnc2c1ncn2[C@@H]1O[C@H](COP(=O)(O)OP(=O)(O)OP(=O)(O)O)[C@@H](O)[C@H]1O` [ATP], the relative activity [3] was “whereas B. subtilis NadD strongly preferred ATP”.
In the case of `CC(=O)C(O)SCCNC(=O)CCNC(=O)[C@H](O)C(C)(C)COP(=O)(O)OP(=O)(O)OC[C@H]1O[C@@H](n2cnc3c(N)ncnc32)[C@H](O)[C@@H]1OP(=O)(O)O` (stereo partly shown) [methylglyoxal-CoA hemithioacetal], the Km [4] is listed as 144 ± 64 µM.
